Laboratory results: patent publication US8202507B2, “Assay for vitamin B12 absorption and method of making labeled vitamin B12” (The Regents of the University of California, priority 2004, dated 2012)

Key:
[1] = cited from earlier work
[2] = AMS assay of B12 absorption in a normal human subject after oral ^14C-vitamin B12; type: in vivo; conditions: for total of oral dose recovered in urine and feces: seven days post-dose, cumulative urine and stool; for delay in the appearance of the label in plasma: plasma by AMS
Description: This example describes the use of this labeled B12 and AMS to assay B12 absorption in a normal human subject. A single 1.5 μg dose of the ^14C-vitamin B12 was administered orally and detected by AMS as it appeared in the bloodstream.
The subject was a healthy person with a body mass index (BMI) of 27.5. The subject began complete fecal and urine collection 24 h in advance of the dose and continued complete 24 h collections until Day 7. On the day of dose administration, the subject was fitted with an intravenous catheter in a forearm vein. Blood was drawn into 7 mL tubes containing EDTA. A baseline blood sample was drawn (7 AM) and the dose consumed that corresponded to 2.2 KBq of radioactivity (1.5 μg) was administered in 50 mL of drinking water in a paper cup. The volunteer was allowed to have water ad libitum thereafter, with a light meal taken 2 hr postdose. Blood samples were drawn at frequent intervals for the first 15 hr post-dose and daily thereafter. Meals were controlled for time and content on the dose administration day.
AMS analysis. Aliquots of plasma (30 μL), urine (80 μL) and a stool slurry (80 μL) were dried, combusted to CO2, and reduced to filamentous carbon using known procedures. No other processing preceded the graphization step, thus quantitative recovery was ensured. The ^14C measurements were performed at the Center for Accelerator Mass Spectrometry at Lawrence Livermore National Laboratory. Measurements were conducted to <3% instrument imprecision and, in general, signal acquisition was complete to the desired statistical precision in 3-5 min per sample. The radiation exposure of the subject, due to the ^14C-B12 dose, was equivalent or less than exposure due to 10 hours of intercontinental plane flight.

| total of oral dose recovered in urine and feces [2] | total of oral dose recovered in urine and feces ([2]; listed as 14C) | share of the quantified output accounted for ([2]; seventy-two hours post-dose, urine and feces) | delay in the appearance of the label in plasma ([2]; single 1.5 μg oral dose) | delay in the appearance of the label in plasma ([2]; single 1.5 μg oral dose, listed as 14C from the labeled vitamin B12) | peak circulating ^14C-B12 as percent of the administered dose ([2]; single 1.5 μg oral dose, plasma, at peak after seven hours) | label in the twenty-four hour urine collection ([2]; single 1.5 μg oral dose, urine, no flushing dose) | Substance | solubility in water ([1]; 25° C.) | solubility in acetone, chloroform and ether [1] | solubility in alcohol and phenol [1] |
| --- | --- | --- | --- | --- | --- | --- | --- | --- | --- | --- |
| – | – | – | – | – | – | – | Cyanocobalamin | 1.2% | insoluble | soluble |
| 15.8% | 15.9% | 99% | two to three | three | less than three | 6.8 % of administered dose | ^14C-cyanocobalamin [^14C-vitamin B12] | – | – | – |
